Results reported in ChEMBL document CHEMBL6121046, “Discovery of Novel Hydrazide-Based HDAC3 Inhibitors as Epigenetic Immunomodulators for Cancer Immunotherapy” (J Med Chem, 2025).
Calls of active or inactive are those of the source. The calls are words filed in the database; no cut-off is given here.

Assays:
[1] = biological target: T1, Protein deacetylase HDAC6 (Homo sapiens, UniProt Q9UBN7); test: Inhibition of human recombinant HDAC6 pre-incubated with compounds for 10 mins measured followed by 60 mins of substrate addition
T1 sequence (Q9UBN7 whole entry): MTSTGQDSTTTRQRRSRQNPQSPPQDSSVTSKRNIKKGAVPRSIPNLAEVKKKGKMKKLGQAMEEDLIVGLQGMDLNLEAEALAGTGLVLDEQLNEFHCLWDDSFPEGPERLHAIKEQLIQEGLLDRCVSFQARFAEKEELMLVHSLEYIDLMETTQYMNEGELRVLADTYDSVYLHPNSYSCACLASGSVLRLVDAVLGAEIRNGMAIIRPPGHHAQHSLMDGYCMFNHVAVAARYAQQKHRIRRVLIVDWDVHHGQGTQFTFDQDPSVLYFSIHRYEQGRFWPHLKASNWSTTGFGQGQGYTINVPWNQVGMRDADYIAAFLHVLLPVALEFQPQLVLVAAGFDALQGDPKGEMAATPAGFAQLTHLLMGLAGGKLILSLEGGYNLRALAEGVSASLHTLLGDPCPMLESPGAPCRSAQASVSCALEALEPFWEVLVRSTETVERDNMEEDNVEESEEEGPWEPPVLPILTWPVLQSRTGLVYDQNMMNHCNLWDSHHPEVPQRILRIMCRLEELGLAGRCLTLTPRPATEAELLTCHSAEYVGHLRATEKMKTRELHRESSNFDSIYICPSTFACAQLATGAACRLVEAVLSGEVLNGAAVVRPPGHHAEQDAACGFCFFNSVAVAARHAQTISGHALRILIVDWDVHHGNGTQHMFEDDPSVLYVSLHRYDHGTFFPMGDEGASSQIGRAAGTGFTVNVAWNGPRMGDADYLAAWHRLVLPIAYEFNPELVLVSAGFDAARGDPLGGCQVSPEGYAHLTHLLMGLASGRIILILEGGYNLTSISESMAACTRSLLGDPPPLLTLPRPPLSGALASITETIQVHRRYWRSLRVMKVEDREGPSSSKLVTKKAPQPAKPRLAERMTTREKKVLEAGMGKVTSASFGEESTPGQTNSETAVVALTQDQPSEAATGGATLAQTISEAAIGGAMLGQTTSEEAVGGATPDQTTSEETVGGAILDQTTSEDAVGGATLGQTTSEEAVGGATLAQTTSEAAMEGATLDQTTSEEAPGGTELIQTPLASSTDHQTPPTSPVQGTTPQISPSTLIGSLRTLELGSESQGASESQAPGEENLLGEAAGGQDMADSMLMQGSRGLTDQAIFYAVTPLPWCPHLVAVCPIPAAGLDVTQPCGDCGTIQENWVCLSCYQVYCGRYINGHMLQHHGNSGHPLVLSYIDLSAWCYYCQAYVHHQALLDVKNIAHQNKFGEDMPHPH

Histone deacetylase 7 = biological target: T2, Histone deacetylase 7 (Homo sapiens, UniProt Q8WUI4); test: Inhibition of human recombinant HDAC7 pre-incubated with compounds for 10 mins measured followed by 60 mins of substrate addition
T2 sequence (Q8WUI4 whole entry): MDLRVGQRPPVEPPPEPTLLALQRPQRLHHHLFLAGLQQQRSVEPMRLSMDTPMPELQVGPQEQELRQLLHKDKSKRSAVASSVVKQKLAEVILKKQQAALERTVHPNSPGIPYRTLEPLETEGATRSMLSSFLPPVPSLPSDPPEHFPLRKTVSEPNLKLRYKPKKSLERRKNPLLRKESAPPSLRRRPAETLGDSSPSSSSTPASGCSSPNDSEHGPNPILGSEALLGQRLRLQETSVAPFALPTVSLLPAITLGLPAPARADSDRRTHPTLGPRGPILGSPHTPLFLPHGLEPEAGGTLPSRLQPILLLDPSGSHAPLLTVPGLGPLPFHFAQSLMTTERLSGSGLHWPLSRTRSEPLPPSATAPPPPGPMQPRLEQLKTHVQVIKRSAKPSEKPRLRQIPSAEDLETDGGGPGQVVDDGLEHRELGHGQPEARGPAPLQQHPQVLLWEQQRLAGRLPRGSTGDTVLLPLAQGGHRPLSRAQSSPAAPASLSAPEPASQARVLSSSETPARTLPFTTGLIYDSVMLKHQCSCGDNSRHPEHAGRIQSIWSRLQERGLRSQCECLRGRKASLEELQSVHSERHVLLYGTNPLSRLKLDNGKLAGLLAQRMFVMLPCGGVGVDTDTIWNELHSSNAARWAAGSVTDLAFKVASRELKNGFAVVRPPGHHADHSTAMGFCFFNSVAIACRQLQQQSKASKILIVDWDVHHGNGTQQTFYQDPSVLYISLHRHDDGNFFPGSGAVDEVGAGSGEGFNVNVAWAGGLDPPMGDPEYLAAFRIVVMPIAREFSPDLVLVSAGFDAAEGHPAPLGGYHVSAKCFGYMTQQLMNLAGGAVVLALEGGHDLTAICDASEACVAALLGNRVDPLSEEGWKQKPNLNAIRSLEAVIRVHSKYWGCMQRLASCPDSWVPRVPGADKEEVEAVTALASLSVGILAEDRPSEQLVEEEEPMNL

HCT-116 = test: Antiproliferative activity against human HCT-116 cells measured after 48 hrs incubation by MTT assay relative to control; type: functional, cell-based; conditions: HCT-116, 48 h
MC-38 [2] = test: Induction of apoptosis in mouse MC38 cells assessed as viable cells at 1 uM measured after 48 hrs by FITC/PI staining based flow cytometry (reference value: 82.07%); type: functional; conditions: read-out: Activity
MC-38 [3] = test: Induction of apoptosis in mouse MC38 cells assessed as necrotic cells at 1 uM measured after 48 hrs by FITC/PI staining based flow cytometry (reference value: 0.56%); type: functional
MC-38 [4] = test: Induction of apoptosis in mouse MC38 cells assessed as necrotic cells at 2 uM measured after 48 hrs by FITC/PI staining based flow cytometry (reference value: 0.56%); type: functional
MC-38 [5] = test: Induction of apoptosis in mouse MC38 cells assessed as late apoptotic cells at 4 uM measured after 48 hrs by FITC/PI staining based flow cytometry (reference value: 5.07%); type: functional
MC-38 [6] = test: Induction of apoptosis in mouse MC38 cells assessed as early apoptotic cells at 8 uM measured after 48 hrs by FITC/PI staining based flow cytometry (Rvb =12.27%); type: functional
MC-38 [7] = test: Induction of apoptosis in mouse MC38 cells assessed as late apoptotic cells at 8 uM measured after 48 hrs by FITC/PI staining based flow cytometry (reference value: 5.07%); type: functional
MC-38 [8] = test: Increase in acetylated H3 in mouse MC38 cells at 0.1 to 2 uM measured after 24 hrs incubation by Western blot analysis; type: functional, cell-based; conditions: dose 0.1-2 µM
MC-38 [9] = test: Induction of PD-L1 expression in mouse MC38 cells measured after 24 hrs incubation by Western blot analysis; type: functional, cell-based; conditions: dose 1-4 µM
B16-F10 (Mus musculus) = test: Antiproliferative activity against mouse B16-F10 cells measured after 48 hrs incubation by MTT assay relative to control; conditions: B16-F10, 48 h
B16-F10 = test: Antiproliferative activity against mouse B16-F10 cells at 1 uM measured after 48 hrs incubation by MTT assay relative to control

## CCCNNC(=O)c1ccc(CNC(=O)c2cnc(-c3ccc4occc4c3)[nH]2)cc1
[1]
  IC50: > 10000 nM
Histone deacetylase 7
  IC50: > 10000 nM
HCT-116
  IC50: 100 nM
MC-38 [2]
  viability at 1 µM: 49.3%
MC-38 [3]
  Activity: 3.72%
MC-38 [4]
  Activity: 2.15%
MC-38 [5]
  Activity: 54.95%
MC-38 [6]
  Activity: 19.83%
MC-38 [7]
  Activity: 60.9%
MC-38 [8]
  Activity: Active
MC-38 [9]
  Activity: Dose-dependent-effect
B16-F10 (Mus musculus)
  IC50: 2690 nM
B16-F10
  Activity: 54.57%

## CCCNNC(=O)c1ccc(CNC(=O)c2cnc(-c3cccc4ccccc34)[nH]2)cc1
[1]
  IC50: 9680 nM
Histone deacetylase 7
  IC50: > 10000 nM
HCT-116
  IC50: 230 nM
MC-38 [2]
  viability at 1 µM: 50.7%
MC-38 [3]
  Activity: 2.9%
MC-38 [4]
  Activity: 9.01%
MC-38 [5]
  Activity: 26.83%
MC-38 [6]
  Activity: 22.9%
MC-38 [7]
  Activity: 46.63%
MC-38 [8]
  Activity: Active
MC-38 [9]
  Activity: Dose-dependent-effect
B16-F10 (Mus musculus)
  IC50: 2470 nM
B16-F10
  Activity: 55.07%
